Test results as given in patent US11708359B2, “Monoacylglycerol lipase modulators” (Janssen Pharmaceutica NV, priority 2020, dated 2023).
pIC50: −log10 of the molar value.

target: human MGL from HeLa cells (Homo sapiens (Human), UniProt Q99685); test: MGL in vitro activity assay ([glycerol-1,3-3H]-oleoyl glycerol cleavage, activated carbon filter); format: biochemical; details: 300 nM [Glycerol-1,3-3H]-oleoyl glycerol, endogenously expressed MGL from HeLa cells, one hour incubation; read-out: MGL IC50
In short: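 Endogenous MGL in HeLa cells or homogenates was incubated with compound and 300 nM [glycerol-1,3-3H]-oleoyl glycerol for one hour. Reactions were filtered through activated carbon, and tritiated glycerol in the flow-through was counted as a measure of activity.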

Chain of human MGL from HeLa cells (Q99685 whole entry): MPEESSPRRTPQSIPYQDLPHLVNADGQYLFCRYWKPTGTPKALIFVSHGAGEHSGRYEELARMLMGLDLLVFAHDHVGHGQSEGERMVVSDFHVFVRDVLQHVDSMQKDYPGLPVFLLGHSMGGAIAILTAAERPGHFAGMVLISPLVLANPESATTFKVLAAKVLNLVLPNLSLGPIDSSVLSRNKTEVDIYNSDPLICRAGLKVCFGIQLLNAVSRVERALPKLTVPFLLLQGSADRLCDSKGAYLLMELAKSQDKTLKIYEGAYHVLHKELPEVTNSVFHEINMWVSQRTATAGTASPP

| Structure (SMILES) | pIC50 |
| --- | --- |
| CC(C)c1ccc([C@H]2[C@@H]3CN(C(=O)[C@H]4C[C@]5(COC(=O)N5)C4)C[C@@H]32)cc1 [Example 90, (2s,4S)-2-((1R,5S,6S)-6-(4-Isopropylphenyl)-3-azabicyclo[3.1.0]hexane-3-carbonyl)-7-oxa-5-azaspiro[3.4]octan-6-one] | 8.55 |
| CC(C)c1ccc([C@H]2[C@@H]3CN(C(=O)[C@H]4C[C@]5(CCC(=O)N5)C4)C[C@@H]32)cc1 [Example 91, (2r,4S)-2-((1R,5S,6S)-6-(4-Isopropylphenyl)-3-azabicyclo[3.1.0]hexane-3-carbonyl)-5-azaspiro[3.4]octan-6-one] | 7.70 |
| Cc1ccccc1[C@H]1[C@@H]2CN(C(=O)[C@H]3C[C@]4(COC(=O)N4)C3)C[C@@H]21 [Example 98, (2s,4S)-2-((1R,5S,6S)-6-(o-Tolyl)-3-azabicyclo[3.1.0]hexane-3-carbonyl)-7-oxa-5-azaspiro[3.4]octan-6-one] | 6.82 |
| CC(C)Cc1cccc([C@H]2[C@@H]3CN(C(=O)[C@H]4C[C@]5(COC(=O)N5)C4)C[C@@H]32)c1 [Example 101, (2s,4S)-2-((1R,5S,6S)-6-(3-Isobutylphenyl)-3-azabicyclo[3.1.0]hexane-3-carbonyl)-7-oxa-5-azaspiro[3.4]octan-6-one] | 8.82 |
| CC(C)(CO)c1cccc([C@H]2[C@@H]3CN(C(=O)[C@H]4C[C@]5(COC(=O)N5)C4)C[C@@H]32)c1 [Example 104, (2s,4S)-2-((1R,5S,6S)-6-(3-(1-Hydroxy-2-methylpropan-2-yl)phenyl)-3-azabicyclo[3.1.0]hexane-3-carbonyl)-7-oxa-5-azaspiro[3.4]octan-6-one] | 7.72 |
| CC(C)(C(=O)O)c1cccc([C@H]2[C@@H]3CN(C(=O)[C@H]4C[C@]5(COC(=O)N5)C4)C[C@@H]32)c1 [Example 105] | 6.52 |
| Cc1cc(C2CC2)ccc1[C@H]1[C@@H]2CN(C(=O)[C@H]3C[C@]4(COC(=O)N4)C3)C[C@@H]21 [Example 109, (2s,4S)-2-((1R,5S,6S)-6-(4-Cyclopropyl-2-methylphenyl)-3-azabicyclo[3.1.0]hexane-3-carbonyl)-7-oxa-5-azaspiro[3.4]octan-6-one] | 8.80 |
| Cc1ccc([C@H]2[C@@H]3CN(C(=O)[C@H]4C[C@]5(COC(=O)N5)C4)C[C@@H]32)cc1Cl [Example 110, (2s,4S)-2-((1R,5S,6S)-6-(3-Chloro-4-methylphenyl)-3-azabicyclo[3.1.0]hexane-3-carbonyl)-7-oxa-5-azaspiro[3.4]octan-6-one] | 7.77 |
| CCc1cc([C@H]2[C@@H]3CN(C(=O)[C@H]4C[C@]5(COC(=O)N5)C4)C[C@@H]32)ccc1F [Example 111, (2s,4S)-2-((1R,5S,6S)-6-(3-Ethyl-4-fluorophenyl)-3-azabicyclo[3.1.0]hexane-3-carbonyl)-7-oxa-5-azaspiro[3.4]octan-6-one] | 7.96 |
| Cc1c([C@H]2[C@@H]3CN(C(=O)[C@H]4C[C@]5(COC(=O)N5)C4)C[C@@H]32)cccc1C(F)(F)F [Example 113] | 7.11 |
| Cc1ccc([C@H]2[C@@H]3CN(C(=O)[C@H]4C[C@]5(COC(=O)N5)C4)C[C@@H]32)cc1OC(F)(F)F [Example 115, (2s,4S)-2-((1R,5S,6S)-6-(4-Methyl-3-(trifluoromethoxy)phenyl)-3-azabicyclo[3.1.0]hexane-3-carbonyl)-7-oxa-5-azaspiro[3.4]octan-6-one] | 8.28 |
| CC(C)(C)c1cccc([C@H]2[C@@H]3CN(C(=O)[C@H]4C[C@]5(COC(=O)N5)C4)C[C@@H]32)n1 [Example 116, (2s,4S)-2-((1R,5S,6R)-6-(6-(tert-Butyl)pyridin-2-yl)-3-azabicyclo[3.1.0]hexane-3-carbonyl)-7-oxa-5-azaspiro[3.4]octan-6-one] | 8.28 |
